Results published in patent US8586611B2 (priority 2005, dated 2013).
Where two headings read alike, the source gives them in different places.

Legend:
Assay type in all cases: in vivo
Plasmopara viticola = assay: Test B: grape downy mildew, spray 24 h after inoculation (disease rating, 100 = 100% disease control)
Outline: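 This is a curative spray test, applied 24 h after inoculation. Compounds in 50/50 acetone–water with 250 ppm Trem 014 surfactant were sprayed to run-off on P. viticola-infected seedlings, with 200 ppm equating to 500 g/ha. Plants were kept 5 days in a 20 °C growth chamber, then 24 h humid, and scored 0–100 for disease control relative to controls.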

Phytophthora infestans [1] = assay: whole plant or invertebrate; conditions: for Test C disease rating (100 = 100% disease control, 0 = no disease control): tomato late blight
Phytophthora infestans [2] = assay: whole plant or invertebrate; conditions: for Test D disease rating (100 = 100% disease control, 0 = no disease control): tomato late blight
[3] = test system: Erysiphe graminis f. sp. tritici; assay: Test E: wheat powdery mildew, spray the day before inoculation (disease rating, 100 = 100% disease control)
Outline: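 Protective test: spores of E. graminis f. sp. tritici dusted on wheat seedlings one day after run-off spraying of test suspension (acetone/water with 250 ppm surfactant; 200 ppm = 500 g/ha). Ratings after 7 days in growth chamber at 20° C, 100 = full control, 0 = none, relative to controls.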

[4] = test system: Pseudoperonospora cubensis; assay: Test F: cucumber downy mildew, DMSO/acetone/water test suspension, spray the day before inoculation (disease rating, 100 = 100% disease control)
Text: The test compounds were first dissolved in dimethyl sulfoxide (DMSO) in an amount equal to 4% of the final volume and then suspended at the desired concentration (in ppm) in acetone and purified water (30/70 mix by volume). The resulting test suspensions were then used in test F. Spraying a 250 ppm test suspension on the test plants was the equivalent of a rate of 250 g/ha.
The test suspension was sprayed on cucumber seedlings. The following day the seedlings were inoculated with a spore suspension of Pseudoperonospora cubensis (the causal agent of cucumber downy mildew) and incubated in a saturated atmosphere at 20° C. for 24 h, and then moved to a growth chamber at 20° C. for 6 days, after which disease ratings were made.
Results for Tests A-F are given in Table A. In the table, a rating of 100 indicates 100% disease control and a rating of 0 indicates no disease control (relative to the controls). A dash (-) indicates no test results.

[5] = spray 24 h after inoculation, compounds without asterisk (not 40 or 10 ppm)
[6] = spray the day before inoculation, compounds without asterisk (not 40 or 10 ppm)
[7] = spray 17 h after inoculation, compounds without asterisk (not 40 or 10 ppm)
[8] = sprayed 24 h after inoculation, unmarked compounds (no asterisk, not 40 or 10 ppm)
[9] = sprayed the day before inoculation, unmarked compounds (no asterisk, not 40 or 10 ppm)
[10] = sprayed 17 h after inoculation, unmarked compounds (no asterisk, not 40 or 10 ppm)
[11] = sprayed the day before inoculation, 7 days at 20° C., unmarked compounds (no asterisk, not 40 or 10 ppm)
[12] = DMSO/acetone/water test suspension, sprayed the day before inoculation, unmarked compounds (no asterisk)
[13] = Phytophthora infestans, in Solanum lycopersicum, 144 h, read-out: Test C disease rating (100 = 100% disease control, 0 = no disease control)
[14] = Phytophthora infestans, in Solanum lycopersicum, topical, 96 h, read-out: Test D disease rating (100 = 100% disease control, 0 = no disease control)
[15] = spray 24 h after inoculation, tested at 10 ppm
[16] = spray the day before inoculation, tested at 10 ppm
[17] = spray 17 h after inoculation, tested at 10 ppm

SMILES	Test B disease rating (100 = 100% disease control, 0 = no disease control) (Plasmopara viticola; [5])	Test C disease rating (100 = 100% disease control, 0 = no disease control) (Phytophthora infestans [1]; [6])	Test D disease rating (100 = 100% disease control, 0 = no disease control) (Phytophthora infestans [2]; [7])	Test E disease rating (100 = 100% disease control, 0 = no disease control) [3, 6]	other results
Cc1ccc(C)c(CC(=O)N2CCC(c3nc(C(=O)N(C)C(C)c4cccnc4)cs3)CC2)c1 (stereo not shown) [compound 95]	0%	100%	83%	0%	Test F disease rating (100 = 100% disease control, 0 = no disease control) ([4]; DMSO/acetone/water suspension, spray the day before inoculation, compounds without asterisk): 97%
COc1ccc([C@@H](C)NC(=O)c2csc(C3CCN(C(=O)Cc4cccc(Br)c4)CC3)n2)cc1 [compound 279]					Test B disease rating (100 = 100% disease control, 0 = no disease control) (Plasmopara viticola; [8]): 0; Test C disease rating (100 = 100% disease control, 0 = no disease control) (Phytophthora infestans [1]; [9]): 0; Test D disease rating (100 = 100% disease control, 0 = no disease control) (Phytophthora infestans [2]; [10]): 0; Test E disease rating (100 = 100% disease control, 0 = no disease control) [3, 11]: 0; Test F disease rating (100 = 100% disease control, 0 = no disease control) [4, 12]: 0
CN(C(=O)c1csc(C2CCN(C(=O)Cn3nc(Cl)cc3Cl)CC2)n1)[C@@H]1CCCc2ccccc21 [Compound 238, 2-[1-[(3,5-dichloro-1H-pyrazol-1-yl)acetyl]-4-piperidinyl]-N-methyl-N-[(1R)-1,2,3,4-tetrahydro-1-naphthalenyl]-4-thiazolecarboxamide]					pest or weed control at 10 ppm (Plasmopara viticola; Plasmopara viticola, 144 h, spray 24 h after inoculation, tested at 10 ppm, read-out: Test B disease rating (100 = 100% disease control, 0 = no disease control)): 100%; pest or weed control at 10 ppm (Phytophthora infestans [1]; [13]): 100%; pest or weed control at 10 ppm (Phytophthora infestans [2]; [14]): 99%; pest or weed control at 10 ppm ([3]; Blumeria graminis, topical, 168 h, spray the day before inoculation, tested at 10 ppm, read-out: Test E disease rating (100 = 100% disease control, 0 = no disease control)): 0%
Cc1nc(C)n(CC(=O)N2CCC(c3nc(C(=O)N(C)[C@H](C)c4ccccc4)cs3)CC2)n1 [compound 120]	7%	51%	100%	0%	
Cc1cc(C(F)(F)F)nn1CC(=O)N1CCC(c2nc(C(=O)N(C)[C@@H]3CCCc4ccccc43)co2)CC1 [Compound 151, N-methyl-2-[1-[[5-methyl-3-(trifluoromethyl)-1H-pyrazol-1-yl]acetyl]-4-piperidinyl]-N-[(1R)-1,2,3,4-tetrahydro-1-naphthalenyl]-4-oxazolecarboxamide]					pest or weed control at 40 ppm (Plasmopara viticola; Plasmopara viticola, 144 h, spray 24 h after inoculation, tested at 40 ppm, read-out: Test B disease rating (100 = 100% disease control, 0 = no disease control)): 99%; pest or weed control at 40 ppm (Phytophthora infestans [1]; [13]): 100%; pest or weed control at 40 ppm (Phytophthora infestans [2]; [14]): 99%; pest or weed control at 40 ppm ([3]; Blumeria graminis, topical, 168 h, spray the day before inoculation, tested at 40 ppm, read-out: Test E disease rating (100 = 100% disease control, 0 = no disease control)): 0%
COC(=O)Cc1ccccc1CC(=O)N1CCC(c2nc(C(=O)N(C)[C@H](C)c3ccccc3)cs2)CC1 [compound 90]	17%	26%	9%	0%	
Cc1cc(C(F)(F)F)nn1CC(=O)N1CCC(c2nc(C(=O)N3CCCC(C)(C)C3)cs2)CC1 [compound 313]					Test B disease rating (100 = 100% disease control, 0 = no disease control) (Plasmopara viticola; [8]): 98; Test C disease rating (100 = 100% disease control, 0 = no disease control) (Phytophthora infestans [1]; [9]): 99; Test D disease rating (100 = 100% disease control, 0 = no disease control) (Phytophthora infestans [2]; [10]): 92; Test E disease rating (100 = 100% disease control, 0 = no disease control) [3, 11]: 0
COC(=O)[C@H](c1ccccc1)N(C)C(=O)c1csc(C2CCN(C(=O)Cn3nc(C(F)(F)F)cc3C)CC2)n1 [compound 244]	100%	99%	93%	0%	
COc1ccc(CCNC(=O)c2csc(C3CCN(C(=O)Cc4cc(C)ccc4C)CC3)n2)cc1OC [compound 288]					Test B disease rating (100 = 100% disease control, 0 = no disease control) (Plasmopara viticola; [8]): 73; Test D disease rating (100 = 100% disease control, 0 = no disease control) (Phytophthora infestans [2]; [10]): 76; Test E disease rating (100 = 100% disease control, 0 = no disease control) [3, 11]: 0; Test F disease rating (100 = 100% disease control, 0 = no disease control) [4, 12]: 95
Cc1ccc(C)c(CC(=O)N2CCC(c3nc(C(=O)N(C(C)C)[C@H](C)c4ccccc4)cs3)CC2)c1 [compound 285]					Test B disease rating (100 = 100% disease control, 0 = no disease control) (Plasmopara viticola; [8]): 10; Test C disease rating (100 = 100% disease control, 0 = no disease control) (Phytophthora infestans [1]; [9]): 25; Test D disease rating (100 = 100% disease control, 0 = no disease control) (Phytophthora infestans [2]; [10]): 0; Test E disease rating (100 = 100% disease control, 0 = no disease control) [3, 11]: 0
CCCc1nc(C(F)(F)F)cn1CC(=O)N1CCC(c2nc(C(=O)N(C)[C@H](C)c3ccccc3)cs2)CC1 [compound 123]	13%	100%	47%	7%	
Cc1cc(C(F)(F)F)nn1CC(=O)N1CCC(c2nc(C(=O)N(C)C(C)c3ccccc3F)cs2)CC1 (stereo not shown) [compound 250]					Test B disease rating (100 = 100% disease control, 0 = no disease control) (Plasmopara viticola; [15]): 97%; Test C disease rating (100 = 100% disease control, 0 = no disease control) (Phytophthora infestans [1]; [16]): 97%; Test D disease rating (100 = 100% disease control, 0 = no disease control) (Phytophthora infestans [2]; [17]): 71%; Test E disease rating (100 = 100% disease control, 0 = no disease control) [3, 16]: 0%
Cc1cc(C(F)(F)F)nn1CC(=O)N1CCC(c2nc(C(=O)N(C)C3COc4ccccc43)cs2)CC1 (stereo not shown) [compound 184]					Test B disease rating (100 = 100% disease control, 0 = no disease control) (Plasmopara viticola; [15]): 77%; Test C disease rating (100 = 100% disease control, 0 = no disease control) (Phytophthora infestans [1]; [16]): 99%; Test D disease rating (100 = 100% disease control, 0 = no disease control) (Phytophthora infestans [2]; [17]): 76%; Test E disease rating (100 = 100% disease control, 0 = no disease control) [3, 16]: 0%
Cc1ccc(C)c(CC(=O)N2CCC(c3nc(C(=O)N(C)C4CCSc5ccccc54)cs3)CC2)c1 (stereo not shown) [compound 136]	77%	100%	80%	0%	
Cc1ccn(CC(=O)N2CCC(c3nc(C(=O)N(C)[C@H](C)c4ccccc4)cs3)CC2)n1 [compound 72]	1%	91%	66%	0%	
CNC(=O)OC1CCC(N(C)C(=O)c2csc(C3CCN(C(=O)Cn4nc(C(F)(F)F)cc4C)CC3)n2)c2ccccc21 (stereo not shown) [compound 219]	69%	99%	99%	0%	
Cc1nc(CC(=O)N2CCC(c3nc(C(=O)N(C)[C@H](C)c4ccccc4)cs3)CC2)cs1 [compound 91]	16%	99%	79%	0%	
Cc1ccc(C)c(CC(=O)N2CCC(c3nc(C(=O)N(C)C4CCCc5ccccc54)cs3)CC2)c1 (stereo not shown) [compound 99]	97%	100%	99%	0%	
C[C@H](c1ccccc1)N(C)C(=O)c1csc(C2CCN(C(=O)Cn3cnc(C(C)(C)C)c3)CC2)n1 [compound 141]	0%	0%	0%	0%	
Cc1cccc(CC(=O)N2CCC(c3nc(C(=O)N(C)Cc4ccncc4)cs3)CC2)c1 [compound 170]	7%	29%	0%	0%	
